compound: O=[As]([O-])(O)O.[K+] [potassium arsenate]; assay: thermal stability z-score vs DMSO; higher = more thermally stabilized by treatment; conditions: HeLa; arsenate concentration 1 mM
Experimental: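 Cellular thermal proteome profiling in HeLa cells treated with 1 mM arsenate for 1 h (DMSO pretreatment), heated to ten temperatures (37-66.3 °C). Soluble protein was quantified by TMT mass spectrometry relative to DMSO controls; the thermal stability score was transformed to a z-score; mean of n = 3 experiments.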
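Note: each temperature applied for 3 min, abundance score taken as mean log2 fold change at the two lowest temperatures, z-score obtained by mean subtraction and division by SD.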

UniProt P16401, sequence (P16401 whole entry): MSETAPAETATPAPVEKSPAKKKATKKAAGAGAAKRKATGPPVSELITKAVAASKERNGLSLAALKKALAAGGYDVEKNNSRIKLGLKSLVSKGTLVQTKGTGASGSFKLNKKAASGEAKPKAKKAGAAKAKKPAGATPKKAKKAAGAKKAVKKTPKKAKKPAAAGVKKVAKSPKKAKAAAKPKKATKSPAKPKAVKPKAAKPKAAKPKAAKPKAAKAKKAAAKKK
UniProt Q9NPI1, sequence (Q9NPI1 whole entry): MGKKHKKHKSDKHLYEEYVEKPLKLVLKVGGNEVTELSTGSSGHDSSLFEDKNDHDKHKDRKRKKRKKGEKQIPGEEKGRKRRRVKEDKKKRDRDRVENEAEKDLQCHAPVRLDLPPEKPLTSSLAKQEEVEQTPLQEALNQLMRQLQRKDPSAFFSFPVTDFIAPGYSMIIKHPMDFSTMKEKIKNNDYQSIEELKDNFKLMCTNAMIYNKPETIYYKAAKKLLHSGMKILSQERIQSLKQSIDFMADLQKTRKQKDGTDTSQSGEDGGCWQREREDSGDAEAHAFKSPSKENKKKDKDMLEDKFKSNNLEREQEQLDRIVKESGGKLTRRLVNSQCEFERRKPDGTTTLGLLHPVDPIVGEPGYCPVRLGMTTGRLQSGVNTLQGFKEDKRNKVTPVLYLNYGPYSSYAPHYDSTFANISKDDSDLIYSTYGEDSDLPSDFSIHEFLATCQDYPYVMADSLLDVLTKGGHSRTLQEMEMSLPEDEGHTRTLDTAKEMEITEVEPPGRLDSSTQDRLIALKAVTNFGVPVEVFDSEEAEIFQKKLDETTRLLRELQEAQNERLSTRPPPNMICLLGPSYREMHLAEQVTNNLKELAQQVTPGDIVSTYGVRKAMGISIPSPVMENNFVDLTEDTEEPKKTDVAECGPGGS
UniProt P16219, sequence (P16219 whole entry): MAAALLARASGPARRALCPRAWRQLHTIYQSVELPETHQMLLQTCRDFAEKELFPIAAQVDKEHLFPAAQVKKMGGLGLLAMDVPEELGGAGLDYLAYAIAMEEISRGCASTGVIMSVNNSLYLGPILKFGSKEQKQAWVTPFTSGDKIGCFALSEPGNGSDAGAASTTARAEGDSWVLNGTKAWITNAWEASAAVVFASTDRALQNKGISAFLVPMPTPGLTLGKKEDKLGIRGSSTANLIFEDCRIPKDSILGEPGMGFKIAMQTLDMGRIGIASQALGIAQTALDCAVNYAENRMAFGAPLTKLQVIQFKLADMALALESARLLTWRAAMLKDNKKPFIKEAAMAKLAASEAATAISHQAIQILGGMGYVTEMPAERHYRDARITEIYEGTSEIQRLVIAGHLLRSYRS
UniProt Q9UKM7, sequence (Q9UKM7 whole entry): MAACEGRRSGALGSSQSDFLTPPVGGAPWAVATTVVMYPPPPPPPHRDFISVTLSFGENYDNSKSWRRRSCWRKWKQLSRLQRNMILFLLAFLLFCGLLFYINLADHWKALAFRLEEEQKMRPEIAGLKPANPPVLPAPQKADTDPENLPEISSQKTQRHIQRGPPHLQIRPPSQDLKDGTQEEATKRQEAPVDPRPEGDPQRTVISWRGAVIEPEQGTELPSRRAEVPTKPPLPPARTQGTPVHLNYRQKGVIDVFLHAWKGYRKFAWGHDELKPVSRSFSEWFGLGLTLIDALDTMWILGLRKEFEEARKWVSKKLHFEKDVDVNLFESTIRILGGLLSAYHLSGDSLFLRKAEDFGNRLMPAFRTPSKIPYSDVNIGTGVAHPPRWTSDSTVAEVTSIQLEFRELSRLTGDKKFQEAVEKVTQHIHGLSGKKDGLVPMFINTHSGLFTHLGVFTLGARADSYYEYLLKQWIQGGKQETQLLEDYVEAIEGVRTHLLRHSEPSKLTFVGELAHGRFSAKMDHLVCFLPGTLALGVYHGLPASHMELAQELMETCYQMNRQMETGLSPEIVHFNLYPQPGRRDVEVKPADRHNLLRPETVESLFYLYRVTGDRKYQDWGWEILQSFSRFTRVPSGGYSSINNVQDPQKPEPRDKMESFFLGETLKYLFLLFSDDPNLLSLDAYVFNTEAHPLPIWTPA
UniProt P30533, sequence (P30533 whole entry): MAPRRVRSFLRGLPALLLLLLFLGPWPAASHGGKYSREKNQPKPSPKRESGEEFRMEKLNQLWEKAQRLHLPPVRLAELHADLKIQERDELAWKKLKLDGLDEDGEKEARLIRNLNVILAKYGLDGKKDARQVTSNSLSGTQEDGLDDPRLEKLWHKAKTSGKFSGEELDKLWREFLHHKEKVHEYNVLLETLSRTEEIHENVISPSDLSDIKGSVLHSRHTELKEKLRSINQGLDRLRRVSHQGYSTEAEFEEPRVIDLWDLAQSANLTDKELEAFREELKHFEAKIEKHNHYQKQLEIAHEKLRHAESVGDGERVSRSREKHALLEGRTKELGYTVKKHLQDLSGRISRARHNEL
UniProt Q15428, sequence (Q15428 whole entry): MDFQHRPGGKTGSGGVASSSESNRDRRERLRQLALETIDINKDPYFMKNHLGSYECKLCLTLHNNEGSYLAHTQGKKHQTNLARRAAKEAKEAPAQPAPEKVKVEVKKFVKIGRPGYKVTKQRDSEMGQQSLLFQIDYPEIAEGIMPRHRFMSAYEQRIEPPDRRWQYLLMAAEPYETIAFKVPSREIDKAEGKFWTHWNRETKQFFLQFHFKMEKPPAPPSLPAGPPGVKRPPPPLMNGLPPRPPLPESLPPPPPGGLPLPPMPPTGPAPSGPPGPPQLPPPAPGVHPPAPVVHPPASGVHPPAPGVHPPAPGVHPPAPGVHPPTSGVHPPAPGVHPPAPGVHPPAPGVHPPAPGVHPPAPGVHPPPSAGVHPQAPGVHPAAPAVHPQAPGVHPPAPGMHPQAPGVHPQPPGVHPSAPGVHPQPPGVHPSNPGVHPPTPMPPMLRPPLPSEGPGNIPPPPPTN
UniProt Q6DD88, sequence (Q6DD88 whole entry): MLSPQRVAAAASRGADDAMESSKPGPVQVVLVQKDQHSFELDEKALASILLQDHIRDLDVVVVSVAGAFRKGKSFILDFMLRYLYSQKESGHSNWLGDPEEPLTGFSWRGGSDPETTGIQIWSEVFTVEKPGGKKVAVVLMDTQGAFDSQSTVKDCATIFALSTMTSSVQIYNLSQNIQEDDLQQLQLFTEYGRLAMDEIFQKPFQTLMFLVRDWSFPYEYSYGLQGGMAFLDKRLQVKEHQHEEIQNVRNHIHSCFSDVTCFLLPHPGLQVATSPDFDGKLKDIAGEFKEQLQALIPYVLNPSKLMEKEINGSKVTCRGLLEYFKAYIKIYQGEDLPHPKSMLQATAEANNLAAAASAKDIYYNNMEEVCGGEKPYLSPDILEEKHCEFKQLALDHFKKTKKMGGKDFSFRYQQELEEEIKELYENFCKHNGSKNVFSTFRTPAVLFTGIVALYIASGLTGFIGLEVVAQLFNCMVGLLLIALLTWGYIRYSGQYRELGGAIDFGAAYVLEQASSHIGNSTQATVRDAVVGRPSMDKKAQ
UniProt Q86Y39, sequence (Q86Y39 whole entry): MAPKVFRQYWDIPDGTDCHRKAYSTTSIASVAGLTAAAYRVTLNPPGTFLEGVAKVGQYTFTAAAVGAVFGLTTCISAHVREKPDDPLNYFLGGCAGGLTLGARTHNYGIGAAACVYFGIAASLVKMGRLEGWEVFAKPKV
UniProt Q6V1X1, sequence (Q6V1X1 whole entry, looked up): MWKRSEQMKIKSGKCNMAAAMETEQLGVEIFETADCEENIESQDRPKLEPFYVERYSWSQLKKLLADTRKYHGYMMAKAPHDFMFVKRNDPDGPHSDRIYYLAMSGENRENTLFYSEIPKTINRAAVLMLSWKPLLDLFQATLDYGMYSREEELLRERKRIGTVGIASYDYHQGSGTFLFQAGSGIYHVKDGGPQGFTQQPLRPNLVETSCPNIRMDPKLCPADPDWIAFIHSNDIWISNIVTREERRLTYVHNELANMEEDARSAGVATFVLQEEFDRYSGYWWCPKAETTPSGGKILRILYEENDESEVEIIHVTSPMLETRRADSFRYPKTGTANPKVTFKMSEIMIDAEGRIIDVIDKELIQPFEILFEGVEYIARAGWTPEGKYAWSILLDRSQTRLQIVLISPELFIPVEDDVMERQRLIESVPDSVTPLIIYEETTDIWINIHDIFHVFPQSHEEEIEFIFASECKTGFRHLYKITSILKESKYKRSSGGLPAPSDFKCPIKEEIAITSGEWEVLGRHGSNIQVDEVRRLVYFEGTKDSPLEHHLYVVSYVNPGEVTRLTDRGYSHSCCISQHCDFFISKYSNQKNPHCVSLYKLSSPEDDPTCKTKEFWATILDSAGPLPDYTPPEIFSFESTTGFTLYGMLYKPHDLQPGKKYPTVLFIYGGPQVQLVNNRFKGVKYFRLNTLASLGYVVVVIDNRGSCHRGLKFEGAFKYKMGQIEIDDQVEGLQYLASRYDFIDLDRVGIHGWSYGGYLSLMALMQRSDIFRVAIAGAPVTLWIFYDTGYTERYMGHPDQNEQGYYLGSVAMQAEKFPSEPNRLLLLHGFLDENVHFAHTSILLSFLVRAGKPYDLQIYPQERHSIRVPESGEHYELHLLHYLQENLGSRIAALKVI
UniProt Q9UKF7, sequence (Q9UKF7 whole entry): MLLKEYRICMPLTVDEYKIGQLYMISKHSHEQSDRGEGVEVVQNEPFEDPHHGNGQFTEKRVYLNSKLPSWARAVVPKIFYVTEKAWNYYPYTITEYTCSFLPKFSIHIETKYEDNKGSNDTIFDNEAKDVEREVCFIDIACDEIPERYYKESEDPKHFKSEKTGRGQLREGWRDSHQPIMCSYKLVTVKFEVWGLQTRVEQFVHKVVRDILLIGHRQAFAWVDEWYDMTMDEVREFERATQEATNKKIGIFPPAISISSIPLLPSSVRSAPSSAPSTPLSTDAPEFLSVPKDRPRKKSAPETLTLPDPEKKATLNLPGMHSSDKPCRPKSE
UniProt Q96F10, sequence (Q96F10 whole entry): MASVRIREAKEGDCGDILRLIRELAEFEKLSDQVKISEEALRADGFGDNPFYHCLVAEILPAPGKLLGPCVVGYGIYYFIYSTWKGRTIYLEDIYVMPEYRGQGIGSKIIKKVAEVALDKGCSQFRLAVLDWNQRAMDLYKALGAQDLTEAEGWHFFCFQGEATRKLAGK

Target	thermal stability z-score
HIST1H1B (UniProt P16401)	1.19
NGLY1 (UniProt Q96IV0)	0.0507
ACADS (UniProt P16219)	-2.93
SF3A2 (UniProt Q15428)	-0.0497
AFG3L2 (UniProt Q9Y4W6)	-0.123
SAT2 (UniProt Q96F10)	0.614
MAP7 (UniProt Q14244)	-0.779
LXN (UniProt Q9BS40)	0.992
STRN3 (UniProt Q13033)	0.326
ANXA7 (UniProt P20073)	0.966
PGRMC2 (UniProt O15173)	0.479
PRKAB1 (UniProt Q9Y478)	-0.528
BRD7 (UniProt Q9NPI1)	-0.517
RAD51 (UniProt Q06609)	-0.0411
PITPNC1 (UniProt Q9UKF7)	-0.255
TWF2 (UniProt Q6IBS0)	-0.697
SRP14 (UniProt P37108)	-0.436
ATL3 (UniProt Q6DD88)	0.731
PDHX (UniProt O00330)	-6.67
LRPAP1 (UniProt P30533)	-0.32
TEX30 (UniProt Q5JUR7)	-0.411
TGFB1 (UniProt P01137)	-0.306
CHMP4C (UniProt Q96CF2)	-0.789
ILKAP (UniProt Q9H0C8)	-0.406

Target	thermal stability z-score
FBXL20 (UniProt Q96IG2)	-0.992
DPP8 (UniProt Q6V1X1)	0.257
TLN2 (UniProt Q9Y4G6)	-0.69
ELP2 (UniProt Q6IA86)	-0.24
ABCB6 (UniProt Q9NP58)	-0.252
NAA50 (UniProt Q9GZZ1)	0.502
OTUB1 (UniProt Q96FW1)	-0.468
CWF19L2 (UniProt Q2TBE0)	-0.098
WLS (UniProt Q5T9L3)	0.0899
THTPA (UniProt Q9BU02)	0.53
LDLR (UniProt P01130)	-0.0946
NECTIN3 (UniProt Q9NQS3)	0.432
UniProt E7ENQ6	0.151
PQBP1 (UniProt O60828)	-0.0247
HAT1 (UniProt O14929)	0.265
ITFG1 (UniProt Q8TB96)	0.61
CDK17 (UniProt Q00537)	-0.0969
RPS19 (UniProt P39019)	-1.03
RABGEF1 (UniProt Q9UJ41)	-0.113
NSUN5 (UniProt Q96P11)	0.136
HEATR5B (UniProt Q9P2D3)	-0.105
OSMR (UniProt Q99650)	1.55
SPCS3 (UniProt P61009)	0.879
NDUFA11 (UniProt Q86Y39)	0.571

Target	thermal stability z-score
MRPL13 (UniProt Q9BYD1)	-0.201
ARPC1B (UniProt O15143)	-0.0161
SLC35B2 (UniProt Q8TB61)	0.579
ITCH (UniProt Q96J02)	-0.386
PRKAG1 (UniProt P54619)	0.942
SAP130 (UniProt Q9H0E3)	-0.246
PDE4DIP (UniProt Q5VU43)	-0.0411
ATAD3A (UniProt Q9NVI7)	0.401
MAN1B1 (UniProt Q9UKM7)	0.103
PDXK (UniProt O00764)	-0.829
CSNK1E (UniProt P49674)	-0.184
GANAB (UniProt Q14697)	0.696
UPRT (UniProt Q96BW1)	0.289
TRAM1 (UniProt Q15629)	0.968
SNRPB|SNRPN	0.578
TMEM2 (UniProt Q9UHN6)	0.466
PDPK1 (UniProt O15530)	0.451
PIK3C2A (UniProt O00443)	0.167
C8ORF33 (UniProt Q9H7E9)	1.19
ME2 (UniProt P23368)	-1.26
UBFD1 (UniProt O14562)	0.066
TRIM4 (UniProt Q9C037)	-0.143
NOL12|V9GYY5 (UniProt V9GYY5)	0.699

compound: NC(=O)CCCCC1CCSS1 [lipoamide]; assay: as above; conditions: HeLa; lipoamide concentration 100 µM; arsenate co-treatment: 1 mM arsenate 1 h
Experimental: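 Cellular thermal proteome profiling in HeLa cells. Cells were treated with 100 µM lipoamide for 1 h, with or without 1 mM arsenate for a further 1 h, then heated to ten temperatures (37-66.3 °C), and soluble protein was quantified by TMT mass spectrometry relative to 0.1% DMSO controls. The thermal stability score (sum of log2 fold changes minus the abundance score) was transformed to a z-score; mean of n = 3 experiments.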

Target	thermal stability z-score
HIST1H1B (UniProt P16401)	1.01
NGLY1 (UniProt Q96IV0)	-0.149
ACADS (UniProt P16219)	0.116
SF3A2 (UniProt Q15428)	-0.0843
AFG3L2 (UniProt Q9Y4W6)	-0.688
SAT2 (UniProt Q96F10)	0.538
MAP7 (UniProt Q14244)	0.478
LXN (UniProt Q9BS40)	0.274
STRN3 (UniProt Q13033)	0.231
ANXA7 (UniProt P20073)	1.98
PGRMC2 (UniProt O15173)	0.682
PRKAB1 (UniProt Q9Y478)	-0.236
BRD7 (UniProt Q9NPI1)	-0.355
RAD51 (UniProt Q06609)	0.0327
PITPNC1 (UniProt Q9UKF7)	-0.545
TWF2 (UniProt Q6IBS0)	-0.088
SRP14 (UniProt P37108)	-0.152
ATL3 (UniProt Q6DD88)	-0.399
PDHX (UniProt O00330)	-0.515
LRPAP1 (UniProt P30533)	-1.07
TEX30 (UniProt Q5JUR7)	0.373
TGFB1 (UniProt P01137)	-2.9
CHMP4C (UniProt Q96CF2)	-0.0236
ILKAP (UniProt Q9H0C8)	0.624

Target	thermal stability z-score
FBXL20 (UniProt Q96IG2)	-1.2
DPP8 (UniProt Q6V1X1)	0.32
TLN2 (UniProt Q9Y4G6)	-1.57
ELP2 (UniProt Q6IA86)	0.0198
ABCB6 (UniProt Q9NP58)	-0.585
NAA50 (UniProt Q9GZZ1)	0.872
OTUB1 (UniProt Q96FW1)	0.513
CWF19L2 (UniProt Q2TBE0)	0.0402
WLS (UniProt Q5T9L3)	-2.04
THTPA (UniProt Q9BU02)	0.32
LDLR (UniProt P01130)	0.0821
NECTIN3 (UniProt Q9NQS3)	-0.126
UniProt E7ENQ6	-0.462
PQBP1 (UniProt O60828)	0.533
HAT1 (UniProt O14929)	0.352
ITFG1 (UniProt Q8TB96)	-0.794
CDK17 (UniProt Q00537)	1.07
RPS19 (UniProt P39019)	0.104
RABGEF1 (UniProt Q9UJ41)	-0.0343
NSUN5 (UniProt Q96P11)	0.469
HEATR5B (UniProt Q9P2D3)	-1.25
OSMR (UniProt Q99650)	-1.48
SPCS3 (UniProt P61009)	-1.66
NDUFA11 (UniProt Q86Y39)	0.521

Target	thermal stability z-score
MRPL13 (UniProt Q9BYD1)	-0.175
ARPC1B (UniProt O15143)	-0.0473
SLC35B2 (UniProt Q8TB61)	-0.113
ITCH (UniProt Q96J02)	-0.451
PRKAG1 (UniProt P54619)	0.174
SAP130 (UniProt Q9H0E3)	-0.208
PDE4DIP (UniProt Q5VU43)	0.0302
ATAD3A (UniProt Q9NVI7)	-0.137
MAN1B1 (UniProt Q9UKM7)	-0.361
PDXK (UniProt O00764)	-0.427
CSNK1E (UniProt P49674)	0.18
GANAB (UniProt Q14697)	-3.91
UPRT (UniProt Q96BW1)	-0.0247
TRAM1 (UniProt Q15629)	-0.499
SNRPB|SNRPN	0.508
TMEM2 (UniProt Q9UHN6)	-0.117
PDPK1 (UniProt O15530)	0.174
PIK3C2A (UniProt O00443)	-0.267
C8ORF33 (UniProt Q9H7E9)	0.833
ME2 (UniProt P23368)	0.621
UBFD1 (UniProt O14562)	-0.0131
TRIM4 (UniProt Q9C037)	-0.218
NOL12|V9GYY5 (UniProt V9GYY5)	0.0645

same assay, conditions: HeLa; lipoamide concentration 100 µM; arsenate co-treatment: none

Target	thermal stability z-score
HIST1H1B (UniProt P16401)	0.679
NGLY1 (UniProt Q96IV0)	-0.0587
ACADS (UniProt P16219)	-1.16
SF3A2 (UniProt Q15428)	-0.43
AFG3L2 (UniProt Q9Y4W6)	-0.0469
SAT2 (UniProt Q96F10)	0.492
MAP7 (UniProt Q14244)	-0.183
LXN (UniProt Q9BS40)	0.0402
STRN3 (UniProt Q13033)	0.318
ANXA7 (UniProt P20073)	1.08
PGRMC2 (UniProt O15173)	0.466
PRKAB1 (UniProt Q9Y478)	0.539
BRD7 (UniProt Q9NPI1)	-0.169
RAD51 (UniProt Q06609)	0.256
PITPNC1 (UniProt Q9UKF7)	-0.37
TWF2 (UniProt Q6IBS0)	-0.182
SRP14 (UniProt P37108)	-0.0661
ATL3 (UniProt Q6DD88)	-0.0961
PDHX (UniProt O00330)	-0.468
LRPAP1 (UniProt P30533)	-0.56
TEX30 (UniProt Q5JUR7)	-0.174
TGFB1 (UniProt P01137)	-3.34
CHMP4C (UniProt Q96CF2)	-0.694
ILKAP (UniProt Q9H0C8)	0.292

Target	thermal stability z-score
FBXL20 (UniProt Q96IG2)	-1.06
DPP8 (UniProt Q6V1X1)	0.543
TLN2 (UniProt Q9Y4G6)	-0.868
ELP2 (UniProt Q6IA86)	-0.186
ABCB6 (UniProt Q9NP58)	-0.323
NAA50 (UniProt Q9GZZ1)	0.589
OTUB1 (UniProt Q96FW1)	0.823
CWF19L2 (UniProt Q2TBE0)	-0.0633
WLS (UniProt Q5T9L3)	-1.12
THTPA (UniProt Q9BU02)	-0.0368
LDLR (UniProt P01130)	-0.206
NECTIN3 (UniProt Q9NQS3)	-0.303
UniProt E7ENQ6	-0.272
PQBP1 (UniProt O60828)	-0.261
HAT1 (UniProt O14929)	0.375
ITFG1 (UniProt Q8TB96)	-0.597
CDK17 (UniProt Q00537)	0.395
RPS19 (UniProt P39019)	0.15
RABGEF1 (UniProt Q9UJ41)	-0.0874
NSUN5 (UniProt Q96P11)	-0.155
HEATR5B (UniProt Q9P2D3)	-0.638
OSMR (UniProt Q99650)	-0.64
SPCS3 (UniProt P61009)	-1.75
NDUFA11 (UniProt Q86Y39)	-0.0102

Target	thermal stability z-score
MRPL13 (UniProt Q9BYD1)	-0.451
ARPC1B (UniProt O15143)	-0.175
SLC35B2 (UniProt Q8TB61)	-0.134
ITCH (UniProt Q96J02)	-0.173
PRKAG1 (UniProt P54619)	0.0278
SAP130 (UniProt Q9H0E3)	-0.267
PDE4DIP (UniProt Q5VU43)	-0.0224
ATAD3A (UniProt Q9NVI7)	0.337
MAN1B1 (UniProt Q9UKM7)	-0.286
PDXK (UniProt O00764)	-0.245
CSNK1E (UniProt P49674)	-0.0385
GANAB (UniProt Q14697)	-3.13
UPRT (UniProt Q96BW1)	-0.292
TRAM1 (UniProt Q15629)	-1.11
SNRPB|SNRPN	0.162
TMEM2 (UniProt Q9UHN6)	-0.196
PDPK1 (UniProt O15530)	0.131
PIK3C2A (UniProt O00443)	0.213
C8ORF33 (UniProt Q9H7E9)	-0.384
ME2 (UniProt P23368)	-0.0427
UBFD1 (UniProt O14562)	-0.0151
TRIM4 (UniProt Q9C037)	0.0313
NOL12|V9GYY5 (UniProt V9GYY5)	-1.5

Reference: the supplement of paper PMC12463676, “Small-molecule dissolution of stress granules by redox modulation benefits ALS models” (Nature Chemical Biology, 2025)
